Source: a melting point compilation (Tetko et al.)

Compound | melting point [°C]
Cc1cc(C)c(C(=O)CCl)c(C)c1C(=O)CCl | 136 to 138
NC1CCCc2[nH]ccc21 (stereo not given) | 83 to 85
CC(C)(C)OC(=O)N1CCC(O)(C(F)(F)F)C1 (stereo not given) | 102 to 104
Nc1cc(N2CCCC2=O)ccc1Cl | 139 to 141
Cc1ccc(C(=O)CCl)cc1C | 51 to 53
O=C1OC(C(O)CO)C(O)=C1O (stereo not given) | 192 to 196
CC(C)(N)CN1CCN(c2ccccc2)CC1 | 84 to 86
NS(=O)(=O)c1cc(C(=O)O)cs1 | 194 to 196
Nc1ccc(C(=O)N2CCCC2)c(F)c1 | 139 to 141
Cn1ccnc(Cl)c1=O | 118 to 120
Nc1ccc(S(=O)(=O)NCc2ccco2)cc1 | 180 to 182
O=C(O)C1CCN(c2cnccn2)CC1 | 149 to 151
O=c1c(Cl)c(Cl)cnn1-c1ccc(C(F)(F)F)cn1 | 111 to 115
Cc1cnc2c(c1)NCCO2 | 109 to 111
c1ccc(-c2nnn[nH]2)nc1 | 214 to 216
Cc1c(Cl)cnc(NC(=O)CCl)c1Cl | 268 to 270
NS(=O)(=O)c1cnn(-c2ccccc2)c1 | 196 to 198
CCOC(=O)c1[nH]ncc1C=O | 168 to 170
NC(=NO)c1ccc(CN2CCOCC2)cc1 | 158 to 160
O=C1CC(NC(=O)C(F)(F)F)c2ccsc21 (stereo not given) | 133 to 135
CCNC(=O)CCCl | 64 to 66
O=C1CCC(C(F)(F)F)CN1 (stereo not given) | 141 to 143
O=C1c2ccccc2C(=O)N1CC1(CBr)CCCC1 | 68 to 70
Cc1csc(N2CCC(=O)CC2)n1 | 59 to 61

Compound | melting point [°C]
Sc1nc(-c2cc3ccccc3o2)no1 | 152 to 154
COC(=O)c1cc(S(=O)(=O)Cl)c(Br)cc1Cl | 135 to 137
COC(=O)c1cc(CCl)c(C)s1 | 54 to 56
O=C(O)C=C1CCCCC1 | 90 to 92
O=C(NCc1nnc2n1CCC2)OCC(F)(F)F | 131 to 133
Nc1nc2c(cc1C(=O)O)CCCC2 | 285 to 287
O=C1NC(=O)c2cnccc21 | 233 to 235
O=C1Nc2ccc(S(=O)(=O)Cl)c3cccc1c23 | 197 to 199
c1nnc(C2CCCNC2)[nH]1 (stereo not given) | 149 to 151
CCNC(c1cccnc1)c1ccc2c(c1)CCO2 (stereo not given) | 50 to 52
CC(C)(C)OC(=O)NCC(=O)NN | 79 to 81
NCCN1C(=O)C2C3C=CC(C3)C2C1=O (stereo not given) | 69 to 71
CC(=O)Nc1cc(N)c(F)cc1F | 104 to 106
Cc1ccc(C2CCCCC2O)cc1 (stereo not given) | 72 to 74
CC1CC(C(F)(F)F)c2c(n(C)[nH]c2=O)N1 (stereo not given) | 202 to 204
CSc1ccc(CNc2ccc3[nH]c(C)nc3c2)cc1 | 172 to 174
NC(=O)CC1CC1 | 125 to 127
Cc1ccc(-c2noc(CC#N)n2)cc1 | 56 to 58
CN1C(=O)C(C#N)=C(N)C12CCCC2 | 290 to 292
CN(C)C(=O)c1cc(F)c(NN)c(F)c1 | 74 to 76
Cn1cccc1C(=O)N1CCNCC1 | 58 to 60
c1nc(N2CCCC2)c2nc[nH]c2n1 | 302 to 304
O=Cc1cnc2ccccn12 | 118 to 120
Sc1n[nH]c(-c2cccnc2)n1 | 304 to 306

Compound | melting point [°C]
CC1(C)SC(=O)NC1=O | 77 to 79
O=C(O)c1nc2ncc(Br)cn2n1 | 199 to 201
O=C(CCl)NC1CCCCNC1=O (stereo not given) | 196 to 198
Sc1nc(C2CC2)nc2ccccc12 | 219 to 221
CS(=O)(=O)NCc1ccccn1 | 88 to 90
Cc1nc(Cl)c2cc[nH]c2n1 | 199 to 201
CC(C)(C)c1ccc(N2CCC(=O)CC2)cc1 | 69 to 71
CC(CS(C)(=O)=O)NC1CC1 (stereo not given) | 39 to 41
Nc1ccc(-c2nc3cc(Br)ccc3s2)cc1 | 189 to 191
CC(C)(C)C(=O)Nc1cn[nH]c1 | 200 to 202
Clc1cc(Cl)cc(-c2nnc3ccc(Cl)nn23)c1 | 209 to 211
Cc1nn(CC(=O)OC(C)C)c(C)c1C=O | 104 to 106
Cn1nc(CCl)[nH]c1=O | 139 to 141
Nc1c(-c2ccccc2)ncn1N | 126 to 128
CN1CCN(c2ccc(CO)cc2F)CC1 | 87 to 89
O=C(O)c1[nH]nc(C2CC2)c1Cl | 231 to 233
Nc1cccc(CN2CCOCC2)n1 | 129 to 131
Nc1ccc(N2CCCCC2)c(S(=O)(=O)Nc2ccc(Cl)cc2)c1 | 145 to 147
Fc1ccccc1-c1nnc(CCl)o1 | 86 to 88
CCCn1c(S)nc2cc(S(N)(=O)=O)ccc21 | 190 to 194
O=C(O)c1cc(F)cc(S(=O)(=O)Cl)c1Br | 186 to 188
N#Cc1ccc(-c2ccncc2)[nH]c1=O | 339 to 341
Cc1[nH]n(-c2ccc(Cl)c(Cl)c2)c(=N)c1C | 156 to 158
O=c1ccc2c([nH]1)CCC2 | 35 to 39

Next, values leading:

melting point [°C] | Compound
231 to 233 | Cc1ccc(S(=O)(=O)Nc2ccccc2C(=O)O)cc1
143 to 145 | Cc1c(Cl)cccc1OCC(=O)O
74 to 76 | O=C(NCCO)c1cccnc1
189 to 191 | Nc1ccc(C=CC(=O)O)cn1
132 to 134 | COc1ccc(S(=O)(=O)Nc2ncc(Br)s2)cc1
102 to 104 | Cc1cc(C(=O)CCl)c(C)n1-c1ccc(C(C)(C)C)cc1
94 to 96 | N#CCC(=O)c1cccc(Br)c1
42 to 44 | CC(=O)c1ccc(OC(C)C)cc1
52 to 54 | CCc1ccc(C(C)(C)C(=O)O)cc1
89 to 91 | Cc1nn(-c2ccccc2)c(Cl)c1CO
227 to 229 | CCOc1ccc(-n2ncc(C(=O)O)c2C)nn1
201 to 203 | O=C(Nc1ccccc1C(=O)O)c1ccccc1Br
165 to 169 | O=C(O)/C=C/c1ccc2c(c1)OCCO2
115 to 117 | CCn1nc(C(C)C)cc1C(=O)O
52 to 54 | Nc1ccnc(Oc2ccccc2)c1
177 to 179 | O=C(O)c1cc(Br)nn1-c1ccc(F)cc1
126 to 128 | Cc1cc(C(=O)O)c(N)s1
79 to 81 | O=C1C=CC(=O)N1CCc1ccc(F)cc1
179 to 181 | Cn1c(CO)nc2cc(Cl)ccc21
98 to 100 | CCC(=O)c1ccc(Cl)c(Cl)c1O
134 to 136 | COc1cc(C(C)=O)ccc1SCC(=O)O
97 to 99 | CCCc1c(C(=O)O)cnn1-c1cccc(F)c1
95 to 99 | Cn1c(=O)cc(N)n(Cc2ccccc2)c1=O
254 to 256 | O=C(O)c1ccc(OCC2CC2)cc1
117 to 119 | CC(=O)Nc1ccc(CO)cc1

melting point [°C] | Compound
90 to 92 | COc1cccc(C2CC2C(=O)O)c1 (stereo not given)
72 to 74 | CCOC(=O)Cn1[nH]cc(C(=O)OCC)c1=N
125 to 127 | COc1cc(C2(C(=O)O)CCC2)ccc1C
224 to 226 | CS(=O)(=O)c1ccc(NC(N)=O)cc1
172 to 174 | O=C(O)C1CC(=O)N(c2ccc3c(c2)OCO3)C1 (stereo not given)
91 to 95 | COc1ccc(-n2c(C)cc(C(=O)CCl)c2C)cc1
195 to 197 | COc1cc(NC(=O)Cc2cccs2)c(C(=O)O)cc1OC
138 to 140 | Cn1ccnc1C(=O)c1ccncc1
54 to 56 | CCOc1ccc(C(C)=O)cc1[N+](=O)[O-]
184 to 186 | CN(CC(=O)N1CCCC(C(=O)O)C1)c1ccc(Cl)cn1 (stereo not given)
89 to 91 | CN(C)C(=O)COc1ccccc1C=O
195 to 197 | O=C(O)COc1ccc(-c2ccccc2)cc1
231 to 233 | NS(=O)(=O)c1ccc(Br)c(C(=O)O)c1
72 to 74 | COc1ccc(SCCC(=O)O)cc1OC
138 to 140 | O=C(CCOc1ccccc1)NO
243 to 245 | O=C(O)c1ccc(S(=O)(=O)NC2CC2)cc1
157 to 159 | Cc1ccc(-n2c(C)ccc2C)c(C(=O)O)c1
124 to 126 | COC(=O)C(O)c1cccc(O)c1 (stereo not given)
67 to 69 | Nc1cccc(COc2ccc3c(c2)OCO3)c1
137 to 139 | NC(=O)c1cc(N)ccc1F
170 to 172 | O=C(O)C1(c2ccc(O)cc2)CCOCC1
126 to 128 | COC(=O)c1cc(NC(=O)C(C)Cl)cc(C(=O)OC)c1 (stereo not given)
206 to 208 | Cc1cc(C(=O)O)sc1-c1ccc(F)cc1
249 to 251 | NC1=NNC(=O)C1c1ccccc1 (stereo not given)
164 to 166 | Cc1cnn(-c2ccc(C(N)=O)cc2N)c1

melting point [°C] | Compound
246 to 248 | O=C(O)Cc1ccc(NC(=O)c2cccc(Br)c2)cc1
276 to 278 | CNC(C(=O)O)c1ccc(F)cc1 (stereo not given)
143 to 145 | N#Cc1ccc(Oc2cccc(Cl)c2Cl)nc1
197 to 199 | O=C(O)c1cn(-c2ccccc2)nc1-c1cccs1
139 to 141 | O=C(O)c1cccc(OCc2ccccc2OC(F)F)c1
274 to 276 | Cn1cnc(-c2ccc(C(=O)O)cc2)n1
189 to 191 | COc1cc(C(=O)O)c(F)cc1N
101 to 103 | O=Cc1ccc(-c2cccc(F)c2)s1
156 to 158 | O=C(O)c1c(C(F)(F)F)nn(-c2ccccc2)c1C(F)(F)F
318 to 320 | O=C(O)c1cc2ccccc2c(=O)[nH]1
189 to 191 | O=C(O)Cc1c[nH]c2ccc([N+](=O)[O-])cc12
116 to 118 | NC(=O)COc1cccc(CO)c1
55 to 57 | Fc1cccc(-c2nc(CCl)co2)c1
114 to 116 | CC(C)C(Br)C(=O)Nc1ccccc1Cl (stereo not given)
29 to 31 | CCC(=O)c1cc(F)cc(Br)c1
103 to 105 | CCOCc1c(C(=O)O)oc2ccccc12
211 to 213 | Cc1c(C(=O)O)cnn1-c1ccc(Br)cc1
258 to 260 | Nc1nc(-c2ccccc2)cn1N
75 to 77 | COc1ccc(C=NO)cc1OCc1ccccc1
295 to 297 | Cc1ccc(C)c(SCc2nc3sc(C(=O)O)c(C)c3c(=O)[nH]2)c1
149 to 151 | COc1cccc(OC)c1CC(=O)O
153 to 155 | CC(C(=O)O)N(C)c1nccn2cnnc12 (stereo not given)
198 to 200 | CCNS(=O)(=O)c1ccc(Br)c(C(=O)O)c1
